# From patent US9102674B2, “Substituted naphthyridine and quinoline compounds as MAO inhibitors” (DART NEUROSCIENCE (CAYMAN) LTD., priority 2013, dated 2015)
# Molecular target: T1, Human recombinant MAO-B (Homo sapiens, UniProt P27338)
# T1 construct: host or cells: insect cells
# T1 sequence (P27338 1-520): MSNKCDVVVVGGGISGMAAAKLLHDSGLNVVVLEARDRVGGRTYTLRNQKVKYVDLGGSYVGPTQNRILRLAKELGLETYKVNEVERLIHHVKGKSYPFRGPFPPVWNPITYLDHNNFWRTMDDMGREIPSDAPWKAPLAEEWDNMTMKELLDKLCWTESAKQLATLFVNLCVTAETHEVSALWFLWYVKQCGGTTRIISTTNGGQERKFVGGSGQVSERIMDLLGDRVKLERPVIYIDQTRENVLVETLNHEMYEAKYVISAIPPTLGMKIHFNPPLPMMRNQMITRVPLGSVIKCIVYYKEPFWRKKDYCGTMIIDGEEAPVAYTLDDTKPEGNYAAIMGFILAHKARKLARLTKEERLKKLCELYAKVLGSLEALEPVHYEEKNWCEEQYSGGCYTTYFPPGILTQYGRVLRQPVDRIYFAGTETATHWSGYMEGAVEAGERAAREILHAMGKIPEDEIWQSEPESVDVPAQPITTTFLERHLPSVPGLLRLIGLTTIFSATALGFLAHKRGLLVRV
# Assay: MAO-B enzymatic assay (fluorometric, kynuramine)
# Type: biochemical
# Conditions: human recombinant MAO-B expressed in insect cells; kynuramine substrate; values given as bins; read-out: MAO-B (pEC50) (converted)
# Procedure: The MAO enzymatic assay was performed according to the fluorometric method described by Matsumoto and colleagues (Matsumoto et al., Clin. Biochem. 1985, 18, 126-129) with the following modifications. Human recombinant MAO-A and MAO-B expressed in insect cells were used. For both assays, test compound and/or vehicle were preincubated with purified enzyme in phosphate buffer pH 7.4 for 15 minutes at 37° C. The reaction was initiated by addition of […] kynuramine. Following a 60 minute incubation period, the reaction was terminated by the addition of 6 N NaOH. The amount of 4-hydroxyquinoline that formed was determined by spectrofluorimetrically at 325 nm/465 nm.
# Results were converted to percent inhibition, and the EC50 (M) for each reaction was determined using the XLfit program from IDBS (ID Business Solutions Ltd., 2 Occam Court, Surrey Research Park, Guildford, Surrey, GU2 7QB UK). The EC50 represents the concentration of a compound where 50% of its maximal effect is observed. The pEC50 is defined as the negative logarithm of the EC50; a higher pEC50 value therefore corresponds to higher potency in the assay.
# Representative compounds of the invention were evaluated in the MAO-B enzymatic assay. Typically, the compounds of the invention show MAO-B inhibitory properties at a concentration of 0.1 to 10 μM, typically at 5-100%.
# As depicted in the following Table, these inhibitory properties were mirrored by pEC50 values ranging from 5 (meaning 10^−5 M or 10 μM) to greater than 7 (meaning less than 10^−7 M or 0.1 μM).
row,SMILES,EC50
1,"Cc1nc2cc(OCc3cccc(Cl)c3)ccc2cc1C(C)(C)O [Example 32, 2-(7-((3-Chlorobenzyl)oxy)-2-methylquinolin-3-yl)propan-2-ol]",< 100 nM
2,"NC(=O)Cc1cnc2cc(OCc3cccc(Cl)c3)ccc2c1 [Example 55, 2-(7-((3-Chlorobenzyl)oxy)quinolin-3-yl)acetamide]",< 100 nM
3,"CCOC(=O)c1cnc2cc(OCCc3cccc(Cl)c3)ccc2c1 [Example 25, Ethyl 7-(3-chlorophenethoxy)quinoline-3-carboxylate]",100 to 1000 nM
4,"C[C@@H](O)c1cnc2cc(OCc3ccc(F)cc3)ccc2c1 [Example 44, (R)-1-(7-((4-Fluorobenzyl)oxy)quinolin-3-yl)ethanol]",< 100 nM
5,"OCCc1cnc2cc(OCc3cccc(Cl)c3)ccc2c1 [Example 56, 2-(7-((3-Chlorobenzyl)oxy)quinolin-3-yl)ethanol]",< 100 nM
6,"CC(C)(O)c1cc2ccc(OCc3ccc(F)cc3)cc2[n+]([O-])c1 [Example 66, 7-[(4-Fluorophenyl)methoxy]-3-(2-hydroxypropan-2-yl)quinolin-1-ium-1-olate]",100 to 1000 nM
7,"CCOC(=O)c1cnc2cc(OCc3cccc(C)c3)ccc2c1 [Example 7, Ethyl 7-((3-methylbenzyl)oxy)quinoline-3-carboxylate]",< 100 nM
8,"NC(=O)Cc1cnc2cc(OCc3ccc(F)cc3)ccc2c1 [Example 58, 2-(7-((4-fluorobenzyl)oxy)quinolin-3-yl)acetamide]",< 100 nM
9,"NC(=O)c1cnc2cc(OCc3ccc(F)cc3)cnc2c1 [Example 68, 7-((4-Fluorobenzyl)oxy)-1,5-naphthyridine-3-carboxamide]",< 100 nM
10,"CCOC(=O)c1cc2ccc(OCc3cccc(F)c3)cc2nc1C [Example 21, Ethyl 7-((3-fluorobenzyl)oxy)-2-methylquinoline-3-carboxylate]",< 100 nM
11,"NC(=O)c1cnc2cc(OCc3cccc(F)c3)cnc2c1 [Example 67, 7-[(3-Fluorophenyl)methoxy]-1,5-naphthyridine-3-carboxamide]",< 100 nM
12,"CC(O)c1cnc2cc(OCc3ccc(F)cc3)ccc2c1 (stereo not shown) [Example 43, 1-(7-((4-Fluorobenzyl)oxy)quinolin-3-yl)ethanol]",< 100 nM
13,"OCc1cnc2cc(OCc3cc(F)cc(F)c3)ccc2c1 [Example 36, (7-((3,5-Difluorobenzyl)oxy)quinolin-3-yl)methanol]",< 100 nM
14,"CC(C)(O)c1cnc2cc(OCc3ccc(F)cc3)cnc2c1 [Example 65, 2-{7-[(4-Fluorophenyl)methoxy]-1,5-naphthyridin-3-yl}propan-2-ol]",< 100 nM
15,"CCOC(=O)Cc1cnc2cc(OCc3ccc(F)cc3)ccc2c1 [Example 53, Ethyl 2-(7-((4-fluorobenzyl)oxy)quinolin-3-yl)acetate]",100 to 1000 nM
16,"CNC(=O)c1cnc2cc(OCc3cccc(Cl)c3)ccc2c1 [Example 46, 7-((3-Chlorobenzyl)oxy)-N-methylquinoline-3-carboxamide]",< 100 nM
17,"CC(C)(O)c1cnc2cc(OCc3cc(F)cc(F)c3)ccc2c1 [Example 29, 2-(7-((3,5-Difluorobenzyl)oxy)quinolin-3-yl)propan-2-ol]",< 100 nM
18,"CCOC(=O)c1cc2ccc(OCc3cccc(Cl)c3)cc2nc1C [Example 20, Ethyl 7-((3-chlorobenzyl)oxy)-2-methylquinoline-3-carboxylate]",< 100 nM
19,"CCOC(=O)c1cnc2cc(OCc3ccc([N+](=O)[O-])cc3)ccc2c1 [Example 11, Ethyl 7-((4-nitrobenzyl)oxy)quinoline-3-carboxylate]",100 to 1000 nM
20,"CCOC(=O)c1cnc2cc(OCCc3cccc(F)c3)ccc2c1 [Example 24, Ethyl 7-(3-fluorophenethoxy)quinoline-3-carboxylate]",< 100 nM
21,"CCOC(=O)c1cnc2cc(OCc3ccc(F)cc3)ccc2c1 [Example 2, Ethyl 7-[(4-fluorophenyl)methoxy]quinoline-3-carboxylate]",< 100 nM
22,"CC(C)(O)c1cnc2cc(OCc3ccc(F)c(F)c3)cnc2c1 [Example 77, 2-{7-[(3,4-Difluorophenyl)methoxy]-1,5-naphthyridin-3-yl}propan-2-ol]",< 100 nM

row,SMILES,EC50
1,"COCc1cnc2cc(OCc3cccc(Cl)c3)ccc2c1 [Example 40, 7-((3-Chlorobenzyl)oxy)-3-(methoxymethyl)quinoline]",< 100 nM
2,"NC(=O)Cc1cnc2cc(OCc3ccc(F)c(F)c3)cnc2c1 [Example 80, 2-(7-((3,4-Difluorobenzyl)oxy)-1,5-naphthyridin-3-yl)acetamide]",< 100 nM
3,"NC(=O)c1cnc2cc(OCc3cccc(Cl)c3)cnc2c1 [Example 69, 7-((3-Chlorobenzyl)oxy)-1,5-naphthyridine-3-carboxamide]",< 100 nM
4,"CC(C)(O)c1cnc2cc(OCCc3cccc(Cl)c3)ccc2c1 [Example 39, 2-(7-(3-Chlorophenethoxy)quinolin-3-yl)propan-2-ol]",100 to 1000 nM
5,"NCc1cnc2cc(OCc3cccc(Cl)c3)ccc2c1 [Example 50, (7-((3-Chlorobenzyl)oxy)quinolin-3-yl)methanamine]",< 100 nM
6,"CCOC(=O)c1cc2ccc(OCc3ccc(F)c(Cl)c3)cc2nc1C [Example 23, Ethyl 7-((3-chloro-4-fluorobenzyl)oxy)-2-methylquinoline-3-carboxylate]",< 100 nM
7,"CN(C)CCNC(=O)c1cnc2cc(OCc3cccc(Cl)c3)ccc2c1 [Example 49, 7-((3-Chlorobenzyl)oxy)-N-(2-(dimethylamino)ethyl)quinoline-3-carboxamide]",1000 to 10000 nM
8,"CCOC(=O)c1cnc2cc(OCc3cc(F)c(F)c(F)c3)ccc2c1 [Example 16, Ethyl 7-((3,4,5-trifluorobenzyl)oxy)quinoline-3-carboxylate]",< 100 nM
9,"CC(=O)c1cnc2cc(OCc3ccc(F)cc3)ccc2c1 [Example 42, 1-(7-((4-Fluorobenzyl)oxy)quinolin-3-yl)ethanone]",< 100 nM
10,"CC(C)(CO)c1cnc2cc(OCc3cccc(Cl)c3)ccc2c1 [Example 60, 2-(7-((3-Chlorobenzyl)oxy)quinolin-3-yl)-2-methylpropan-1-ol]",< 100 nM
11,"NC(=O)c1cnc2cc(OCc3ccc(F)c(F)c3)cnc2c1 [Example 70, 7-((3,4-Difluorobenzyl)oxy)-1,5-naphthyridine-3-carboxamide]",< 100 nM
12,"CCOC(=O)c1cnc2cc(OCc3ccc(OC)cc3)ccc2c1 [Example 10, Ethyl 7-((4-methoxybenzyl)oxy)quinoline-3-carboxylate]",100 to 1000 nM
13,"C[C@H](O)c1cnc2cc(OCc3ccc(F)cc3)ccc2c1 [Example 45, (S)-1-(7-((4-Fluorobenzyl)oxy)quinolin-3-yl)ethanol]",< 100 nM
14,"CCOC(=O)Cc1cnc2cc(OCc3cccc(F)c3)ccc2c1 [Example 52, Ethyl 2-(7-((3-fluorobenzyl)oxy)quinolin-3-yl)acetate]",1000 to 10000 nM
15,"CCOC(=O)c1cnc2cc(OCc3cc(F)cc(F)c3)ccc2c1 [Example 15, Ethyl 7-((3,5-difluorobenzyl)oxy)quinoline-3-carboxylate]",< 100 nM
16,"CCOC(=O)c1cnc2cc(OCc3cc(F)cc(C(F)(F)F)c3)ccc2c1 [Example 13, Ethyl 7-((3-fluoro-5-(trifluoromethyl)benzyl)oxy)quinoline-3-carboxylate]",< 100 nM
17,"CCOC(=O)c1cnc2cc(OCc3ccc(Cl)cc3)ccc2c1 [Example 1, Ethyl 7-[(4-chlorophenyl)methoxy]quinoline-3-carboxylate]",< 100 nM
18,"CCOC(=O)c1cnc2cc(OCc3ccc(F)c(Cl)c3)ccc2c1 [Example 17, Ethyl 7-((3-chloro-4-fluorobenzyl)oxy)quinoline-3-carboxylate]",< 100 nM
19,"Cc1nc2cc(OCc3ccc(F)c(Cl)c3)ccc2cc1C(C)(C)O [Example 33, 2-(7-((3-Chloro-4-fluorobenzyl)oxy)-2-methylquinolin-3-yl)propan-2-ol]",< 100 nM
20,"CC(C)(F)c1cnc2cc(OCc3ccc(F)cc3)cnc2c1 [Example 75, 3-[(4-Fluorophenyl)methoxy]-7-(2-fluoropropan-2-yl)-1,5-naphthyridine]",< 100 nM
21,"CCOC(=O)c1cc2ccc(OCc3ccc(F)cc3)cc2nc1C [Example 22, Ethyl 7-((4-fluorobenzyl)oxy)-2-methylquinoline-3-carboxylate]",< 100 nM
